Source: patent US20260167641A1, “CRYSTAL FORM OF IMIDAZOPYRAZINE DERIVATIVE, PREPARATION METHOD THEREFOR AND USE THEREOF” (TRANSTHERA SCIENCES (NANJING), INC., priority 2022, published 2026)
Converted amounts (≈) assume the structure as drawn.

How the values were obtained:
Assay type in all cases: physicochemical
[1] = Solubility test in pH 4.5 acetate buffer solution
Procedure: Appropriate amounts of crystal forms I, II, III, and the compound of formula (I) were weighed and placed into 15 mL centrifuge tubes separately. A pH 4.5 acetate buffer was added to each tube to prepare saturated solutions. The tubes were sealed and placed in a water bath thermostatic oscillator to shake at 37° C. and a rotation speed of 200 rpm for 24 h. After centrifugation, the supernatants were collected and diluted to the corresponding multiples. The concentrations were measured. The detection was conducted according to the 2020 edition of the Chinese Pharmacopoeia.

[2] = Stability evaluation under influencing factors
Procedure: Appropriate amounts of crystal forms I, II. III, and the compound of formula (I) were taken and exposed to conditions of 60° C., RH (relative humidity) 92.5%, RH (relative humidity) 75%, and light, respectively. The samples were collected on day 30, and the purity of the samples and changes in XRPD were examined according to the 2020 edition of the Chinese Pharmacopoeia.

[3] = Long-term stability test
Procedure: The samples were stored under the conditions of 25° C./60% RH (relative humidity) and 30° C./65% RH (relative humidity), respectively, and then collected at 1M, 2M, 3M, 6M, 9M, 12M, and 18M. Additionally, the samples were stored under the conditions of 40° C./75% RH (relative humidity) and then collected at 1M, 2M, 3M, and 6M. The appearance, total impurities, content, moisture, and crystal form changes (at 3M, 6M, and 12M) were examined and compared with the results on day 0.

[4] = Hygroscopicity test; conditions: 25° C.±1° C.
Procedure: The experimental procedure was conducted in accordance with the guidelines for the hygroscopicity test of drugs in Chinese Pharmacopeia (2020 Edition). • 1. A dry glass weighing bottle with a stopper (outer diameter: 50 mm, height: 15 mm) was taken and placed in a thermostatic drier at 25° C.±1° C. (with a saturated ammonium chloride solution at the bottom) on the day before the test. After 24 h. the bottle was taken out, and its weight (m1) was precisely weighed. • 2. […] The total weight (m2) was precisely weighed. • 3. The weighing bottle was left open, and both the bottle and its bottle cap were placed under the constant temperature and humidity conditions described above for 24 h. • 4. The bottle was well sealed with its bottle cap, and the total weight (m3) was precisely weighed.
[formula] • 5. Hygroscopicity characteristics and hygroscopic weight gains are defined as follows. • deliquescent: sufficient water is absorbed to form a liquid; • extremely hygroscopic: the hygroscopic weight gain is not less than 15%; • hygroscopic: the hygroscopic weight gain is less than 15% but not less than 2%; • slightly hygroscopic: the hygroscopic weight gain is less than 2% but not less than 0.2%; • non-hygroscopic or almost non-hygroscopic: the hygroscopic weight gain is less than 0.2%.

## Nc1nccn2c(C34CCC(NC(=O)CN5CCOCC5)(CC3)C4)nc(-c3ccc(C(=O)Nc4cc(C(F)(F)F)ccn4)cc3)c12 (single isomer, unassigned) [Crystal form II, 4-(8-amino-3-(4-(2-morpholinoacetamido)bicyclo[2.2.1]heptan-1-yl)imidazo[1,5-a]pyrazin-1-yl)-N-(4-(trifluoromethyl)pyridin-2-yl)benzamide]
[1]
  Solubility compared to the amorphous form: higher solubility
[1]; saturated solution, 37° C., 200 rpm, 24 h
  Solubility: 375 µg/mL (≈ 591 µM)
[2]; 0 day
  Purity %: 99.3%
[2]; 60° C., 30 days
  Crystal form identification (XRPD): Consistent with day 0
  Purity %: 99.3%
[2]; Light exposure, 30 days
  Crystal form identification (XRPD): Consistent with day 0
  Purity %: 98.8%
[2]; RH 75%, 30 days
  Crystal form identification (XRPD): Consistent with day 0
  Purity %: 99.3%
[2]; RH 92.5%, 30 days
  Crystal form identification (XRPD): Consistent with day 0
  Purity %: 99.3%
[2]; all influencing factor conditions, 30 days
  Change of crystal form (XRPD pattern): no changes in the crystal forms occurred
[2]; influencing factors, 30 days
  Stability compared to the amorphous form: higher stability
[2]; light exposure, 30 days vs day 0
  Purity decrease: 0.5%
[3]; 0 day
  Appearance: Yellow solid
  Content %: 98.3%
  Crystal form XRPD: Crystal form II
  Moisture %: 0.23%
  Total impurities %: 1.1%
[3]; 6 months at 40° C./75% RH, 18 months at 25° C./60% RH and 30° C./65% RH
  Changes in appearance, total impurities, content, and moisture: no significant changes
[3]; 25° C./60% RH, 1M
  Appearance: Yellow solid
  Content %: 98.2%
  Moisture %: 0.28%
  Total impurities %: 1.1%
[3]; 25° C./60% RH, 2M
  Appearance: Yellow solid
  Content %: 98.3%
  Moisture %: 0.16%
  Total impurities %: 1.2%
[3]; 25° C./60% RH, 3M
  Appearance: Yellow solid
  Content %: 98.4%
  Crystal form XRPD: Crystal form II
  Moisture %: 0.24%
  Total impurities %: 1.1%
[3]; 25° C./60% RH, 6M
  Appearance: Yellow solid
  Content %: 98.2%
  Crystal form XRPD: Crystal form II
  Moisture %: 0.16%
  Total impurities %: 1.1%
[3]; 25° C./60% RH, 9M
  Appearance: Yellow solid
  Content %: 98.5%
  Moisture %: 0.23%
  Total impurities %: 1.1%
[3]; 25° C./60% RH, 12M
  Appearance: Yellow solid
  Content %: 98.2%
  Crystal form XRPD: Crystal form II
  Moisture %: 0.12%
  Total impurities %: 1.1%
[3]; 25° C./60% RH, 18M
  Appearance: Yellow solid
  Content %: 98.9%
  Moisture %: 0.24%
  Total impurities %: 1.1%
[3]; 30° C./65% RH, 1M
  Appearance: Yellow solid
  Content %: 98.2%
  Moisture %: 0.24%
  Total impurities %: 1.1%
[3]; 30° C./65% RH, 2M
  Appearance: Yellow solid
  Content %: 97.9%
  Moisture %: 0.19%
  Total impurities %: 1.2%
[3]; 30° C./65% RH, 3M
  Appearance: Yellow solid
  Content %: 98.2%
  Crystal form XRPD: Crystal form II
  Moisture %: 0.30%
  Total impurities %: 1.1%
[3]; 30° C./65% RH, 6M
  Appearance: Yellow solid
  Content %: 98.1%
  Crystal form XRPD: Crystal form II
  Moisture %: 0.13%
  Total impurities %: 1.1%
[3]; 30° C./65% RH, 9M
  Appearance: Yellow solid
  Content %: 98.4%
  Moisture %: 0.24%
  Total impurities %: 1.1%
[3]; 30° C./65% RH, 12M
  Appearance: Yellow solid
  Content %: 98.2%
  Crystal form XRPD: Crystal form II
  Moisture %: 0.13%
  Total impurities %: 1.1%
[3]; 30° C./65% RH, 18M
  Appearance: Yellow solid
  Content %: 99.0%
  Moisture %: 0.17%
  Total impurities %: 1.1%
[3]; 40° C./75% RH, 1M
  Content %: 98.0%
[3]; 40° C./75% RH, 2M
  Appearance: Yellow solid
  Content %: 97.9%
  Moisture %: 0.18%
  Total impurities %: 1.2%
[3]; 40° C./75% RH, 3M
  Appearance: Yellow solid
  Content %: 98.1%
  Crystal form XRPD: Crystal form II
  Moisture %: 0.24%
  Total impurities %: 1.1%
[3]; 40° C./75% RH, 6M
  Appearance: Yellow solid
  Content %: 98.3%
  Crystal form XRPD: Crystal form II
  Moisture %: 0.13%
  Total impurities %: 1.1%
[3]; 40° C./75% RH, ^ IM
  Appearance: Yellow solid
  Moisture %: 0.24%
  Total impurities %: 1.1%
[4]; 24 h
  Hygroscopicity characteristic: slightly hygroscopic (the hygroscopic weight gain is less than 2% but not less than 0.2%)
[4]; saturated ammonium chloride solution
  24 h percentage weight gain: 0.34%
